{
  "source": "patent US11571418B2",
  "about": "“Platinum compounds that inhibit constitutive STAT3 signaling and induce cell cycle arrest and apoptosis of malignant cells” (H. LEE MOFFITT CANCER CENTER AND RESEARCH INSTITUTE, INC., priority 2011, dated 2023)",
  "key": {"Stat3 [1]": {"molecular_target": "T1, Stat3 (Mus musculus, UniProt P42227)", "T1 construct": "Nuclear extract preparation from NIH3T3 stimulated by rhIL-6, NIH3T3/hEGFR stimulated by rhEGF; endogenous in cells; host or cells: NIH3T3/hEGFR fibroblasts stimulated with rhEGF (nuclear extract)", "T1 sequence (P42227 2-770 limits assumed)": "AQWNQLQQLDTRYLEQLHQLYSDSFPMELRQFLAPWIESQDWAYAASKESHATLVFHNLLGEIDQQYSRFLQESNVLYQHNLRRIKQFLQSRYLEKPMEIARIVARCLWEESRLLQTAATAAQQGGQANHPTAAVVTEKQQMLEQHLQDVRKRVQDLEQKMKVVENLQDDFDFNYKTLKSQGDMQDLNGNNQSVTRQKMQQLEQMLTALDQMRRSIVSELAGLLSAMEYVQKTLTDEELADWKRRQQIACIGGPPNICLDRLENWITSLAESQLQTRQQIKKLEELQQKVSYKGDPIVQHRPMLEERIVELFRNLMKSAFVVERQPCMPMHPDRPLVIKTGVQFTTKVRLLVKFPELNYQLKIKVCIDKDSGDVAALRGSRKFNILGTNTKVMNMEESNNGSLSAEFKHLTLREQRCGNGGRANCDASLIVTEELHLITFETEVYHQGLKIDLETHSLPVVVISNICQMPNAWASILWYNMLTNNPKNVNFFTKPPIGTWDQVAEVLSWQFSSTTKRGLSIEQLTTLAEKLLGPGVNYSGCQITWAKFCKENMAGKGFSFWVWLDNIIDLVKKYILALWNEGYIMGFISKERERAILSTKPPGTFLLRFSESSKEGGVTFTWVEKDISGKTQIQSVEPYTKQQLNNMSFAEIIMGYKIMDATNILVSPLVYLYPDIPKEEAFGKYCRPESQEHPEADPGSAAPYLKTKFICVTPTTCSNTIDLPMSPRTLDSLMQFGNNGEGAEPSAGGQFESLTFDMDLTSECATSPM", "test": "In vitro Stat3 DNA-binding activity assay, EMSA with hSIE probe", "details": "pre-incubated 30 min before hSIE probe", "experimental": "(§1) FIGS. 1A-1E. Inhibition of in vitro Stat3 DNA-binding activity by a platinum complex. Nuclear extracts or cell lysates containing activated Stat1, Stat3 and Stat5, or E2F1 prepared from NIH3T3/hEGFR that are stimulated with EGF or Sf-9 insect cells that are infected with baculovirus expressing Stat1, Stat3, Stat5, or E2F1, respectively, were treated with or without the indicated concentrations of platinum complex, PLATINUM-401 or Cisplatin, for 30 min at room temperature prior to incubation with radiolabeled oligonucleotide probes, and subjected to EMSA analysis. (FIG. 1A) (i) Stat1 and Stat3 binding activities to hSIE probe, (ii) Stat1 and Stat5 binding activities to MGFe probe, and (iii) plot of % oligonucleotide probe-STAT:STAT complexes versus concentration of PLATINUM-401. […] Positions of STAT: STAT-DNA complexes in gel are labeled. In (A) to (C), the control lanes represent DMSO (vehicle)-treatment.\n(§2) Nuclear extract preparation and gel shift assays—Nuclear extract preparation from NIH3T3 stimulated by rhIL-6, NIH3T3/hEGFR stimulated by rhEGF, v-Src-transformed fibroblasts (NIH3T3/v-Src) or tumor cell lines and electrophoretic mobility shift assay were carried out as previously described (Turkson et al., 1998; Garcia et al., 1997; Yu et al., 1995). The ^32P-labeled oligonucleotide probes used are hSIE (high affinity sis-inducible element from the c-fos gene, m67 variant, 5′-[…]) (SEQ ID NO:1) that binds Stat1 and Stat3 (Garcia et al., 1997; Wagner et al., 1990) and MGFe (mammary gland factor element from the bovine β-casein gene promoter, 5′-AGATTTCTAGGAATTCAA) (SEQ ID NO:2) for Stat1 and Stat5 binding (49,50). Except where indicated, inhibitor compound was pre-incubated with the nuclear extract for 30 min at room temperature prior to incubation with radiolabeled probe.\nCompounds from the NCI 2000 diversity set were screened for inhibition of Stat3 signaling in an in vitro DNA-binding activity assay based on analysis by electrophoretic mobility shift assay (EMSA). A platinum (IV) complex, PLATINUM-401 (NSC 295558) (FIG. 1E), was identified as a potent inhibitor of Stat3 and was further characterized for its anti-Stat3 properties. In the in vitro DNA-binding activity assay, nuclear extracts of equal total protein containing active Stat1, Stat3 and Stat5 were pre-incubated with different concentrations of PLATINUM-401 for 30 min prior to incubation with a [^32P]-labeled oligonucleotide, the m67 high affinity sis-inducible element (hSIE) probe that binds Stat1 and Stat3, or the mammary gland factor element (MGFe) that binds Stat1 and Stat5. Samples were then subjected to EMSA."}, "E2F1": {"molecular_target": "T2, E2F1 (Homo sapiens, UniProt Q01094)", "T2 construct": "made in house; host or cells: Sf-9 insect cells infected with baculovirus", "T2 sequence (Q01094 whole entry, species assumed)": "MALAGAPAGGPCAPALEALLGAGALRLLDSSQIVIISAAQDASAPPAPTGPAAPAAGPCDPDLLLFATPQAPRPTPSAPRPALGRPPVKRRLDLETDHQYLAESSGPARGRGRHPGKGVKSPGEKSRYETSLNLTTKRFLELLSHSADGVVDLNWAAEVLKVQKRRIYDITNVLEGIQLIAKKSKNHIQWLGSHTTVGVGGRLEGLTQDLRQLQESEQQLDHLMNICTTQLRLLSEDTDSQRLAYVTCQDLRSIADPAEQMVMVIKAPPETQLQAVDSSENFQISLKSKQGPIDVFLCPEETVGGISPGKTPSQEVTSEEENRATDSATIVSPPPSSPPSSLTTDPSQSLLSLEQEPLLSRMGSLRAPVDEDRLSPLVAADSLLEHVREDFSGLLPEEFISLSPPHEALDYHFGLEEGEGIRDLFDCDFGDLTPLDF", "test": "In vitro E2F1 DNA-binding activity assay, EMSA with DHFR promoter probe", "details": "cell lysates pre-incubated with compound before DHFR promoter probe", "experimental": "as §1\nIn control studies, the effect of PLATINUM-401 was evaluated on the DNA-binding activity of the E2F1 protein that is unrelated to STATs."}, "Stat1": {"molecular_target": "T3, Stat1 (Mus musculus, UniProt P42225)", "T3 construct": "Nuclear extract preparation from NIH3T3 stimulated by rhIL-6, NIH3T3/hEGFR stimulated by rhEGF; endogenous in cells; host or cells: NIH3T3/hEGFR fibroblasts stimulated with rhEGF (nuclear extract)", "T3 sequence (P42225 2-749 limits assumed)": "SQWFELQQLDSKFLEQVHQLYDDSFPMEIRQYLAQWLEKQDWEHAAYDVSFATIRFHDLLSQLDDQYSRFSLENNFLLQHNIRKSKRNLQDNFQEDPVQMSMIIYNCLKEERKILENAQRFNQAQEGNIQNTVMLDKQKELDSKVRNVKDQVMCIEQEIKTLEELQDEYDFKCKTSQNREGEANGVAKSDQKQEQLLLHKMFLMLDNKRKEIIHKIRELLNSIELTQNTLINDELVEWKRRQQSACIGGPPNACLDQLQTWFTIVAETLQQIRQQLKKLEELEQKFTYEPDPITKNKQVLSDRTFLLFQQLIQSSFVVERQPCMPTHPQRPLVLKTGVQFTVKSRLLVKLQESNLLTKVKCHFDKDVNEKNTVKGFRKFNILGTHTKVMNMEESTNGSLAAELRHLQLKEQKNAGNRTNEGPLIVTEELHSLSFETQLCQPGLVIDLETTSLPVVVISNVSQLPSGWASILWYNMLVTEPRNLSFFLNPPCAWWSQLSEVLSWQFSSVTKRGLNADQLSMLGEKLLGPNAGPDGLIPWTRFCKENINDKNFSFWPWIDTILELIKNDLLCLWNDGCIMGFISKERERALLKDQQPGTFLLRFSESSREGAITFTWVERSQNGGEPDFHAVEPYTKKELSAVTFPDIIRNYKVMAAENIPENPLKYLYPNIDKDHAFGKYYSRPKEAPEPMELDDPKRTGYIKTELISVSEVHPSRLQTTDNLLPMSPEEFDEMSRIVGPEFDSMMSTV", "test": "In vitro Stat1 DNA-binding activity assay, EMSA with hSIE or MGFe probe", "details": "pre-incubated 30 min before probe", "experimental": "as §1, §2\nCompounds from the NCI 2000 diversity set were screened for inhibition of Stat3 signaling in an in vitro DNA-binding activity assay based on analysis by electrophoretic mobility shift assay (EMSA). […]"}, "Stat5": {"tested_on": "Stat5", "test": "In vitro Stat5 DNA-binding activity assay, EMSA with MGFe probe", "parameters": "species or system mouse", "details": "pre-incubated 30 min before MGFe probe", "experimental": "as §1\nNuclear extract preparation and gel shift assays—Nuclear extract preparation from NIH3T3 stimulated by rhIL-6, NIH3T3/hEGFR stimulated by rhEGF, v-Src-transformed fibroblasts (NIH3T3/v-Src) or tumor cell lines and electrophoretic mobility shift assay were carried out as previously described (Turkson et al., 1998; Garcia et al., 1997; Yu et al., 1995). […]"}, "Stat3 [2]": {"molecular_target": "T1, Stat3", "details": "Turkson et al., 2004b; cited from earlier work"}},
  "data": [
    {"smiles": "N.N.[Cl][Pt][Cl]", "note": "[Cisplatin, reference compound]", "values": [
      {"measurement": "effect on DNA-binding activity of Stat3:Stat3 homodimer", "setting": "Stat3 [1]", "result": "no detectable effect"},
      {"measurement": "effect on E2F1 DNA-binding activity", "setting": "E2F1", "result": "no detectable effect"},
      {"measurement": "effect on DNA-binding activity of Stat1:Stat1 homodimer", "setting": "Stat1", "result": "no detectable effect"},
      {"measurement": "effect on DNA-binding activity of Stat5:Stat5 dimer", "setting": "Stat5", "result": "no detectable effect"},
      {"measurement": "effect on Stat3 activity", "setting": "Stat3 [2]", "result": "no effect"}
    ]}
  ]
}
